Source: ChEMBL document CHEMBL4334516, “Kinase Chemodiversity from the Arctic: The Breitfussins” (J Med Chem, 2019)

Columns and labels:
[1] = target: Mitogen-activated protein kinase kinase kinase 11 (Homo sapiens, UniProt Q16584); assay: Inhibition of MLK3 (unknown origin) assessed as residual enzyme activity at 5 uM by [33P]-ATP filter binding kinase assay relative to control
[2] = Toxicity in zebrafish embryos assessed as survival at 140 uM after 72 hrs (reference value: 95%); parameters: species or system Danio rerio; details: in vivo
[3] = Stability in human liver microsomes supplemented with UDP-glucuronic acid assessed as parent compound remaining level at 5 uM incubated for 1 hr by LC-MS analysis; type: ADME, Microsome; details: read-out: Stability
[4] = Stability in human plasma assessed as parent compound remaining level at 5 uM incubated for 1 hr by LC-MS analysis; type: ADME, cell-free; details: read-out: Stability
[5] = target: T1, Mitogen-activated protein kinase kinase kinase kinase 2 (Homo sapiens) (UniProt Q12851); assay: Binding affinity to wild-type human partial length GCK (M1 to G318 residues) expressed in mammalian expression system assessed as residual binding level at 10 uM by active-site directed competition binding assay based Kinomescan method relative to control
T1 sequence (whole entry): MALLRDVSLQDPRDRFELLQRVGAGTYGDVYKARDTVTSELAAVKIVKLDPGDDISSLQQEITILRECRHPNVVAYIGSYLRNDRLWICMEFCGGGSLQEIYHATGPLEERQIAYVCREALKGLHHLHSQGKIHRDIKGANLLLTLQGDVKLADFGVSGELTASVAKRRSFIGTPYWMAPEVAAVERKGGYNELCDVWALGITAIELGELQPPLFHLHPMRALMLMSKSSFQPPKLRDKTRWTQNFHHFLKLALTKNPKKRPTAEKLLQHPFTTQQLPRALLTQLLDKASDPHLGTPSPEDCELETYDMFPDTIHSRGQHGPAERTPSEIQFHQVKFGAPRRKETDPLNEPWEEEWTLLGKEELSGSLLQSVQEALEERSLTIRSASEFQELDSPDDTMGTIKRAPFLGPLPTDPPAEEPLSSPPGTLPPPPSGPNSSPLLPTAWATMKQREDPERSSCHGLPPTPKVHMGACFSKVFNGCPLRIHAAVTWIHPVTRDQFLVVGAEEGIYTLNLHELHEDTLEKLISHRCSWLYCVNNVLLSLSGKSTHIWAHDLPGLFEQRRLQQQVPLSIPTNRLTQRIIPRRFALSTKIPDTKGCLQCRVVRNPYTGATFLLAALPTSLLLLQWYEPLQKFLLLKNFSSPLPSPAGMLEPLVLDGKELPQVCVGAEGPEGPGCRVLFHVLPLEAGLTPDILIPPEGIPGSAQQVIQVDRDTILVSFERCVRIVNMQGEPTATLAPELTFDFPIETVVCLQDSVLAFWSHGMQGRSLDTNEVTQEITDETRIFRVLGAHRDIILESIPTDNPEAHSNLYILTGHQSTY

[6] = target: BMP-2-inducible protein kinase (Homo sapiens, UniProt Q9NSY1); assay: Binding affinity to wild-type human partial length BIKE (S34 to N329 residues) expressed in bacterial expression system by active-site directed competition binding assay based Kinomescan method
[7] = target: T2, Serine/threonine-protein kinase pim-1 (Homo sapiens, UniProt P11309); assay: Binding affinity to wild-type human partial length PIM1 (A15 to K313 residues) expressed in bacterial expression system by active-site directed competition binding assay based Kinomescan method
[8] = target: T3, Receptor-interacting serine/threonine-protein kinase 2 (Homo sapiens, UniProt O43353); assay: Binding affinity to wild-type human partial length RIPK2 (M1 to K310 residues) expressed in bacterial expression system assessed as residual binding level at 10 uM by active-site directed competition binding assay based Kinomescan method relative to control
[9] = target: Serine/threonine-protein kinase RIO1 (Homo sapiens, UniProt Q9BRS2); assay: Binding affinity to wild-type human full length RIOK1 (M1 to K568 residues) expressed in bacterial expression system by active-site directed competition binding assay based Kinomescan method
[10] = target: T3, Receptor-interacting serine/threonine-protein kinase 2; assay: Inhibition of RIPK2 (unknown origin) assessed as residual enzyme activity at 1 uM by [33P]-ATP filter binding kinase assay relative to control
[11] = target: Tyrosine-protein kinase JAK1 (Homo sapiens, UniProt P23458); assay: Binding affinity to wild-type human partial length JAK1 JH2 domain-pseudokinase expressed in bacterial expression system by active-site directed competition binding assay based Kinomescan method
[12] = Permeability assessed as drug flux at 500 uM incubated for 20 hrs by PAMPA; type: ADME
[13] = target: T4, Mitogen-activated protein kinase kinase kinase 7 (Homo sapiens) (UniProt O43318); assay: Inhibition of TAK1 (unknown origin) assessed as residual enzyme activity at 1 uM by [33P]-ATP filter binding kinase assay relative to control
T4 sequence (whole entry): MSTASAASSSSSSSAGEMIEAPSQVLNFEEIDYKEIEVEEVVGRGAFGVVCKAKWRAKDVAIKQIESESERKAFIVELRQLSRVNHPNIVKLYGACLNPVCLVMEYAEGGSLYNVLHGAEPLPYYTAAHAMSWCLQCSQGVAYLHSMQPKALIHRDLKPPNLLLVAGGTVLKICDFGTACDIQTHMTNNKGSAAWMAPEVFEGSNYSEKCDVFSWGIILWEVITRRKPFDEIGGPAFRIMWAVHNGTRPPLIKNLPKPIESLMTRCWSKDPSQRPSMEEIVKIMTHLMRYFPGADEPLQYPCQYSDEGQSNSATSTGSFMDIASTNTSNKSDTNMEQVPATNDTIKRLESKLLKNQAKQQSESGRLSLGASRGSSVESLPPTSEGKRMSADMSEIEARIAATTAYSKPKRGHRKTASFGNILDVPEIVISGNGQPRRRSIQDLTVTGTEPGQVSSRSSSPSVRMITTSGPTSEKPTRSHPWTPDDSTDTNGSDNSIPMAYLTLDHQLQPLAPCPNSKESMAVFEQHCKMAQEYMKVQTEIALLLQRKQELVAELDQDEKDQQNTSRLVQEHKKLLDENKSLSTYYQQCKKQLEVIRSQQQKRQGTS

[14] = Toxicity in zebrafish embryos assessed as induction of heart edema by measuring unaffected embryos level at 14 uM after 72 hrs (reference value: 100%); type: tissue-based, Danio rerio; details: in vivo
[15] = tested on: HepG2; assay: Cytotoxicity in human HepG2 cells assessed as reduction in cell viability incubated for 72 hrs by SRB assay; details: HepG2, 72 h
[16] = target: Dual specificity tyrosine-phosphorylation-regulated kinase 1A (Homo sapiens, UniProt Q13627); assay: Binding affinity to wild-type human partial length DYRK1A (H129 to S509 residues) expressed in mammalian expression system assessed as residual binding level at 10 uM by active-site directed competition binding assay based Kinomescan method relative to control
[17] = target: T2, Serine/threonine-protein kinase pim-1; assay: Inhibition of PIM1 (unknown origin) assessed as residual enzyme activity at 1 uM by [33P]-ATP filter binding kinase assay relative to control
[18] = tested on: NCI-H460; assay: Cytotoxicity in human NCI-H460 cells assessed as reduction in cell viability incubated for 72 hrs by SRB assay; details: NCI-H460, 72 h

Row | Compound | Activity [1] [%] | survival at 72 h, 140 µM [2] [%] | remaining at 1 h, 5 µM [3] [%] | remaining at 1 h, 5 µM [4] [%] | Activity [5] [%] | Kd [6] [µM] | Kd [7] [µM] | Activity [8] [%] | Kd [9] [µM] | Activity [10] [%] | Kd [11] [µM] | permeability [12] [%] | Activity [13] [%] | Activity [14] [%] | IC50 [15] [µM] | Activity [16] [%] | Activity [17] [%] | IC50 [18] [µM]
1 | COc1cc(Br)cc2[nH]cc(-c3cnc(-c4ccc[nH]4)o3)c12 | 7 |  |  |  |  |  |  |  |  |  |  |  |  |  |  |  |  | 
2 | COc1cc2c(-c3cnc(-c4ccc[nH]4)o3)c[nH]c2cc1Br |  | 0 | 92 | 83 | 72 | 1.1 | 1.2 | 57 | 2.9 | 41 | 1 | 23 | 35 | 100 | 3 | 75 | 6 | 2
